# Measured values as given in patent US11634686B2, “Method of producing naive pluripotent stem cells” (priority 2016, dated 2023).
# Columns and labels:
# [1] = test system: primed hPSCs; experiment: Conversion of hPSCs from primed to naive pluripotency (Nanog+ cells among hNA+ human cells, dome-shaped colonies); type: cell-based; conditions: for effect of removal of the component from 2iLI medium on Nanog+ cells and mESC-like colonies: primed H9 after Torin1 3 hr, 5 days culture on MEF
# Protocol: Primed hPSCs were treated with 10 μM ROCK inhibitor Y27632 (Abcam) overnight in hESC medium. After being washed twice in phosphate-buffered saline (PBS), primed hPSCs were cultured in 2iLI medium with 10 μM Torin1 (Tocris) for 3 hours. 2iLI medium contained 50% glucose-free DMEM/F12 (Life Technologies) and 50% glucose-free Neurobasal (Life Technologies), 5 mM glucose, 1 mM glutamine, 1% NEAA, 0.1 mM […], 100 U/ml penicillin, 100 μg/ml streptomycin, 5 mg/mL bovine serum albumin (Sigma) to maintain osmolarity, 20 ng/mL recombinant human LIF (Millipore), […] human insulin (Sigma), 1 μM PD0325901 (PD, EMD Millipore), and 3 μM CHIR99021 (CH, Stemgent). For N004 iPSCs, 2iLI medium with 0.8 μM CHIR99021 was used instead. Then hPSCs were trypsinized into single cells using TrypLE (Life Technologies) for 5 min at 37° C. The single cells were plated on MEF feeders (5-6×10^4/cm^2) in 2iLI medium (without Torin1), which was changed daily. Small, bright, dome-shaped colonies appeared in 4-5 days and were picked manually at day 5-7 for dissociation by TrypLE into single cells, which were plated on fresh MEF cells. After several manual passages, mouse ESC-like colonies were uniformly seen and passaged every 3 days with TrypLE and maintained in 2iLI media (without Torin1). Immunostaining was performed using standard protocol to detect various antigens in cultured cells or frozen tissue sections. Briefly, cells or tissue sections were fixed in 4% paraformaldehyde (Sigma) for 20 min, treated with 0.1% Triton X-100 for 15 min at room temperature for permeabilization, blocked in 3% BSA for 1 hour at room temperature, and then incubated with the indicated primary antibodies (Table S1) overnight at 4° C. and secondary antibodies for 1 h at 37° C. Secondary antibodies were AlexaFluor 488, 594, and 647 (1:1,000, Thermo fisher Scientific). Alkaline phosphatase (AP) staining was performed using the Alkaline Phosphatase Kit (Millipore). Diaminobenzidine (DAB) staining was also used to detect GFP expression in frozen embryo sections according to manufacturer's protocol (Vector Laboratories). Briefly, the frozen sections on slides were thawed at room temperature for 5 min. Then the slides were treated with 0.3% H2O2 solution in PBS at room temperature for 10 min to block endogenous peroxidase activity, and then treated with 3% BSA for 45 min for blocking. The sections were incubated with primary antibody (anti-GFP) in 0.1% BSA for 30 min at room temperature, rinsed briefly in PBS 3 times (5 min each), and then incubated with biotinylated secondary antibody for 30 min followed by PBS rinsing for 3 times (5 min each). The sections were incubated with VECTASTAIN ABC reagent (Vector Laboratories) for 30 min, washed with PBS for 5 min. The sections were incubated with 100 μl peroxidase substrate solution (Sigma, D4293) on the slide under microscope until desired staining intensity and then washed with PBS to remove the substrate solution. For live imaging of mitochondria, primed or naive hPSCs were incubated in prewarmed hESC medium (for primed hPSCs) or 2iLI medium (for naive hPSCs) containing 50 nM MitoTracker Green FM or 100 nM TMRE (Life Technologies) for 15 min at 37° C. Then the staining medium was replaced with the corresponding prewarmed medium without dyes. Cells were then imaged on a Leica DMI6000B fluorescence microscope. Quantification of LC3II puncta was performed using NIH ImageJ with the AUTOCOUNTER pluggin, which calculates the percentage of cell area covered by LC3II puncta.
# [2] = test system: primed H9 hESCs; experiment: Autophagy by costaining for LC3 and Lamp1 (LC3II puncta); type: cell-based, human
# Protocol: (§1) Immunostaining was performed using standard protocol to detect various antigens in cultured cells or frozen tissue sections. Briefly, cells or tissue sections were fixed in 4% paraformaldehyde (Sigma) for 20 min, treated with 0.1% Triton X-100 for 15 min at room temperature for permeabilization, blocked in 3% BSA for 1 hour at room temperature, and then incubated with the indicated primary antibodies (Table S1) overnight at 4° C. and secondary antibodies for 1 h at 37° C. Secondary antibodies were AlexaFluor 488, 594, and 647 (1:1,000, Thermo fisher Scientific). Alkaline phosphatase (AP) staining was performed using the Alkaline Phosphatase Kit (Millipore). Diaminobenzidine (DAB) staining was also used to detect GFP expression in frozen embryo sections according to manufacturer's protocol (Vector Laboratories). Briefly, the frozen sections on slides were thawed at room temperature for 5 min. Then the slides were treated with 0.3% H2O2 solution in PBS at room temperature for 10 min to block endogenous peroxidase activity, and then treated with 3% BSA for 45 min for blocking. […] Cells were then imaged on a Leica DMI6000B fluorescence microscope. Quantification of LC3II puncta was performed using NIH ImageJ with the AUTOCOUNTER pluggin, which calculates the percentage of cell area covered by LC3II puncta.
# [3] = test system: TFE3; experiment: Torin1/rapamycin-induced nuclear translocation of TFE3 (immunostaining); type: cell-based, human; conditions: primed H9 hESCs; inhibition of mTor
# Protocol: We named this medium 2iLI.
# as §1
compound,measurement,setting,value
Cc1c[nH]c(-c2cnc(NCCNc3ccc(C#N)cn3)nc2-c2ccc(Cl)cc2Cl)n1 [CHIR99021],optimized concentration for conversion of N004 iPSCs to naive state,"[1]; N004 iPSCs, all other conditions as in 2iLI medium, percentage of human cells positive for Nanog",0.8 µM
same,effect of removal of the component from 2iLI medium on Nanog+ cells and mESC-like colonies,[1],drastically reduced Nanog^+ cells and mESC-like colonies
"O=C(NOC[C@H](O)CO)c1ccc(F)c(F)c1Nc1ccc(I)cc1F [PD, PD0325901]",effect of removal of the component from 2iLI medium on Nanog+ cells and mESC-like colonies,[1],drastically reduced Nanog^+ cells and mESC-like colonies
CNC(=O)c1ccccc1Oc1nc(Nc2cc(OC)c(OC)c(OC)c2)ncc1Br [SBI-0206965],effect on primed-to-naive conversion of blocking autophagy,"[1]; primed H9 treated 3 hr, with 2iLI and Torin1, Nanog+ of hNA+ cells after five days",not significantly affected
CCC(=O)N1CCN(c2ccc(-n3c(=O)ccc4cnc5ccc(-c6cnc7ccccc7c6)cc5c43)cc2C(F)(F)F)CC1 [Torin1],"induction of autophagy, combined treatment",[2]; 2iLI medium with 5 mM glucose and 10 μM Torin1 for 3 hr,induced autophagy most prominently
same,induction of autophagy,"[2]; primed H9 in hESC medium, mTor inhibition for 3 hr",induced autophagy
same,conversion of hPSCs from primed to naive pluripotency,"[1]; transient treatment (10 μM for 3 hr) in 2iLI medium, 5 mM glucose, 5% O2",converted hPSCs from primed to naive pluripotency
same,translocation of TFE3 from cytoplasm to nucleus,[3],induced rapid translocation of TFE3 from cytoplasm to nucleus
"human LIF: recombinant human Leukemia Inhibitory Factor, component of 2iLI medium",effect of removal of the component from 2iLI medium on Nanog+ cells and mESC-like colonies,[1],drastically reduced Nanog^+ cells and mESC-like colonies
"human insulin: human insulin, component of 2iLI medium",percentage of Nanog+ cells among all human cells (hNA+) on replacing N2 and B27 supplements,"[1]; primed H9, Torin1 10 μM 3 hr, human insulin 18 μg/ml, about 5 days on MEF feeders",much higher percentage of Nanog^+ cells
same,effect of removal of the component from 2iLI medium on Nanog+ cells and mESC-like colonies,[1],drastically reduced Nanog^+ cells and mESC-like colonies
